In the supplement of paper PMC10307832:

Key:
Test in all cases: relative viability (nuclei count vs DMSO), 5 days (fraction); higher = more cells survive
[1] = test system: HCC-44
Summary of the method: (§1)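 Relative viability equals treated-well nuclei counts divided by vehicle-well nuclei counts. Counts came from 4× images of lung cancer cell lines grown in 1536-well plates for 5 days after pin-tool dosing on the day after seeding. Dosing used one drug alone or a fixed anchor-drug dose plus five library-drug doses (not always all listed) in √10 steps, and values are medians of duplicate plates.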

[2] = test system: EKVX
Summary of the method: as §1

[3] = test system: NCI-H1623
Summary of the method: as §1

[4] = test system: UMC-11
Summary of the method: as §1

[5] = test system: LCLC-103H
Summary of the method: as §1

[6] = test system: HCC-15
Summary of the method: as §1

[7] = test system: NCI-H1395
Summary of the method: as §1

[8] = test system: NCI-H1755
Summary of the method: as §1

[9] = test system: NCI-H1648
Summary of the method: as §1

Question: `COc1cc2nccc(Oc3ccc(NC(=O)Nc4cc(C)on4)c(Cl)c3)c2cc1OC` [Tivozanib] + Cc1cc(Nc2cc(N3CCN(C)CC3)nc(Sc3ccc(NC(=O)C4CC4)cc3)n2)n[nH]1 [Tozasertib] (partner 0.1 µM) was tested. Which relative viability ([1]; first compound 0.005 µM) did it give?
Answer: 0.889

Question: And the relative viability ([1]; first compound 0.01581 µM)?
Answer: 0.9

Question: What about the relative viability ([1]; first compound 0.05 µM) of the same compound?
Answer: 0.839

Question: What about the relative viability ([1]; first compound 0.1581 µM) of the same compound?
Answer: 1.04

Question: What about the relative viability ([1]; first compound 0.5 µM) of the same compound?
Answer: 0.773

Question: And the relative viability ([2]; first compound 0.005 µM)?
Answer: 0.443

Question: And the relative viability ([2]; first compound 0.01581 µM)?
Answer: 0.356

Question: What about the relative viability ([2]; first compound 0.05 µM) of the same compound?
Answer: 0.35

Question: And the relative viability ([2]; first compound 0.1581 µM)?
Answer: 0.47

Question: What about the relative viability ([2]; first compound 0.5 µM) of the same compound?
Answer: 0.474

Question: What about the relative viability ([3]; first compound 0.005 µM) of the same compound?
Answer: 0.42

Question: What about the relative viability ([3]; first compound 0.01581 µM) of the same compound?
Answer: 0.467

Question: What about the relative viability ([3]; first compound 0.05 µM) of the same compound?
Answer: 0.47

Question: And the relative viability ([3]; first compound 0.5 µM)?
Answer: 0.424

Question: And the relative viability ([4]; first compound 0.005 µM)?
Answer: 0.208

Question: And the relative viability ([4]; first compound 0.01581 µM)?
Answer: 0.2

Question: And the relative viability ([4]; first compound 0.05 µM)?
Answer: 0.198

Question: And the relative viability ([4]; first compound 0.5 µM)?
Answer: 0.211

Question: What about the relative viability ([5]; first compound 0.005 µM) of the same compound?
Answer: 0.525

Question: And the relative viability ([5]; first compound 0.01581 µM)?
Answer: 0.503

Question: And the relative viability ([5]; first compound 0.05 µM)?
Answer: 0.449

Question: What about the relative viability ([5]; first compound 0.1581 µM) of the same compound?
Answer: 0.51

Question: And the relative viability ([5]; first compound 0.5 µM)?
Answer: 0.549

Question: What about the relative viability ([6]; first compound 0.005 µM) of the same compound?
Answer: 0.411

Question: And the relative viability ([6]; first compound 0.01581 µM)?
Answer: 0.419

Question: And the relative viability ([6]; first compound 0.05 µM)?
Answer: 0.496

Question: What about the relative viability ([6]; first compound 0.1581 µM) of the same compound?
Answer: 0.415

Question: What about the relative viability ([6]; first compound 0.5 µM) of the same compound?
Answer: 0.354

Question: And the relative viability ([7]; first compound 0.005 µM)?
Answer: 0.734

Question: What about the relative viability ([7]; first compound 0.01581 µM) of the same compound?
Answer: 0.738

Question: And the relative viability ([7]; first compound 0.05 µM)?
Answer: 0.81

Question: What about the relative viability ([7]; first compound 0.1581 µM) of the same compound?
Answer: 0.681

Question: And the relative viability ([7]; first compound 0.5 µM)?
Answer: 0.807

Question: And the relative viability ([8]; first compound 0.005 µM)?
Answer: 0.565

Question: And the relative viability ([8]; first compound 0.01581 µM)?
Answer: 0.581

Question: And the relative viability ([8]; first compound 0.05 µM)?
Answer: 0.588

Question: What about the relative viability ([8]; first compound 0.1581 µM) of the same compound?
Answer: 0.666

Question: And the relative viability ([8]; first compound 0.5 µM)?
Answer: 0.531

Question: What about the relative viability ([9]; first compound 0.005 µM) of the same compound?
Answer: 0.482

Question: What about the relative viability ([9]; first compound 0.01581 µM) of the same compound?
Answer: 0.534

Question: What about the relative viability ([9]; first compound 0.05 µM) of the same compound?
Answer: 0.436

Question: And the relative viability ([9]; first compound 0.1581 µM)?
Answer: 0.536

Question: What about the relative viability ([9]; first compound 0.5 µM) of the same compound?
Answer: 0.545
